Experimental data published in patent US20250333397A1 (REMIX THERAPEUTICS INC., priority 2021, published 2025).
Like-named read-outs stand apart in the source and are kept apart here.

What was measured:
Assay type in all cases: cell-based, human
HTT mRNA = experiment: RT-qPCR splicing assay, HTT canonical (CJ) and alternative (AJ) junction mRNA; details: Homo sapiens; for AC50: read-out: HTT AJ (AC50, increase in AJ mRNA)
Method in brief: (§1)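 Cells: A673 (DMEM/10% FBS, plated 24 h before) or K562 (IMDM/10% FBS). Dosing: 11-pt 3-fold series, 10 uM top final, ≤0.25% DMSO, 24 h, 37 °C/5% CO2. Readout: RT-qPCR of CJ and AJ junctions, housekeeper-normalized, RQ = 2^(-ΔΔCt) vs DMSO.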

MYB mRNA = experiment: RT-qPCR splicing assay, MYB canonical (CJ) and alternative (AJ) junction mRNA; details: Homo sapiens; for AC50: read-out: MYB AJ (AC50, increase in AJ mRNA)
Method in brief: as §1

SMN2 mRNA = experiment: RT-qPCR splicing assay panel, SMN2 canonical junction (CJ) mRNA; details: Homo sapiens
Method in brief: as §1

Target C mRNA = experiment: RT-qPCR splicing assay panel, Target C canonical junction (CJ) mRNA; details: Homo sapiens
Method in brief: as §1

[1] = 24 h, Table 3A, A673 or K562 cells, 24 h treatment
[2] = 24 h, Table 3A, A673 or K562 cells, 24 h treatment, read-out: HTT CJ (IC50, decrease in CJ mRNA)
[3] = canonical junction (CJ) mRNA, RT-qPCR panel, Table 4A, read-out: HTT, decrease in CJ mRNA levels, IC50
[4] = 24 h, Table 3A, A673 or K562 cells, 24 h treatment, read-out: MYB CJ (IC50, decrease in CJ mRNA)
[5] = canonical junction (CJ) mRNA, RT-qPCR panel, Table 4A, read-out: MYB, decrease in CJ mRNA levels, IC50
[6] = canonical junction (CJ) mRNA, RT-qPCR panel, Table 4A, read-out: SMN2, decrease in CJ mRNA levels, IC50
[7] = canonical junction (CJ) mRNA, RT-qPCR panel, Table 4A, read-out: Target C, decrease in CJ mRNA levels, IC50
[8] = 24 h, Table 3B, A673 or K562 cells, 24 h treatment
[9] = 24 h, Table 3B, A673 or K562 cells, 24 h treatment, read-out: HTT CJ (IC50, decrease in CJ mRNA)
[10] = Table 4B, gene panel, read-out: HTT (IC50, decrease in CJ mRNA levels)
[11] = 24 h, Table 3B, A673 or K562 cells, 24 h treatment, read-out: MYB CJ (IC50, decrease in CJ mRNA)
[12] = Table 4B, gene panel, read-out: MYB (IC50, decrease in CJ mRNA levels)
[13] = Table 4B, gene panel, read-out: SMN2 (IC50, decrease in CJ mRNA levels)
[14] = Table 4B, gene panel, read-out: Target C (IC50, decrease in CJ mRNA levels)

Compound	AC50 (HTT mRNA; [1])	IC50 (HTT mRNA; [2])	IC50 (HTT mRNA; [3])	AC50 (MYB mRNA; [1])	IC50 (MYB mRNA; [4])	IC50 (MYB mRNA; [5])	IC50 (SMN2 mRNA; [6])	IC50 (Target C mRNA; [7])	AC50 (HTT mRNA; [8])	IC50 (HTT mRNA; [9])	IC50 (HTT mRNA; [10])	AC50 (MYB mRNA; [8])	IC50 (MYB mRNA; [11])	IC50 (MYB mRNA; [12])	IC50 (SMN2 mRNA; [13])	IC50 (Target C mRNA; [14])
Cc1ncc(-c2ccc(-c3ccc(N4CC[C@H](N(C)C5CCC5)C4)nn3)c(O)c2)s1 [Compound 268]	1000 to 10000 nM	100 to 1000 nM	100 to 1000 nM	> 10000 nM	> 10000 nM	> 10000 nM	100 to 1000 nM	> 10000 nM	–	–	–	–	–	–	–	–
CC(C)(C)NC1CCN(c2ccc(-c3cc4oc(CC#N)nc4cc3O)nn2)C1 (stereo not shown) [Compound 820]	–	–	–	–	–	–	–	–	100 to 1000 nM	100 to 1000 nM	100 to 1000 nM	100 to 1000 nM	1000 to 10000 nM	1000 to 10000 nM	< 100 nM	1000 to 10000 nM
CCC(C)(C)NC1CCN(c2ccc(-c3cc4oc(C)nc4cc3O)nn2)C1 (stereo not shown) [Compound 836]	–	–	–	–	–	–	–	–	1000 to 10000 nM	100 to 1000 nM	100 to 1000 nM	1000 to 10000 nM	1000 to 10000 nM	1000 to 10000 nM	100 to 1000 nM	1000 to 10000 nM
Oc1cc(-c2cnnc(C3CC3)c2)ccc1-c1ccc(N2CC[C@@H](NC3CCC3)C2)nn1 [Compound 279, 2-{6-[(3R)-3-(cyclobutylamino)pyrrolidin-1-yl]pyridazin-3-yl}-5-(6-cyclopropylpyridazin-4-yl)phenol]	> 10000 nM	1000 to 10000 nM	1000 to 10000 nM	> 10000 nM	> 10000 nM	> 10000 nM	100 to 1000 nM	> 10000 nM	–	–	–	–	–	–	–	–
COc1cc(-c2ccc(-c3ccc(N4CCC(CNC5CCC5)C4)nn3)c(O)c2)cnn1 (stereo not shown) [Compound 348, 2-(6-{3-[(cyclobutylamino)methyl]pyrrolidin-1-yl}pyridazin-3-yl)-5-(6-methoxypyridazin-4-yl)phenol]	100 to 1000 nM	< 100 nM	< 100 nM	1000 to 10000 nM	100 to 1000 nM	100 to 1000 nM	< 100 nM	100 to 1000 nM	–	–	–	–	–	–	–	–
COc1cc(-c2ccc(-c3ccc(N4CC[C@@H](N(CCF)C5CCC5)C4)nn3)c(O)c2)cnn1 [Compound 313, 2-{6-[(3R)-3-[cyclobutyl(2-fluoroethyl)amino]pyrrolidin-1-yl]pyridazin-3-yl}-5-(6-methoxypyridazin-4-yl)phenol]	1000 to 10000 nM	100 to 1000 nM	100 to 1000 nM	1000 to 10000 nM	> 10000 nM	> 10000 nM	100 to 1000 nM	> 10000 nM	–	–	–	–	–	–	–	–
Cc1nc(C#N)c(-c2cc(O)c(-c3ccc(N4CC[C@@H](NC5CCC5)C4)nn3)cc2F)s1 [Compound 428]	100 to 1000 nM	100 to 1000 nM	100 to 1000 nM	100 to 1000 nM	100 to 1000 nM	100 to 1000 nM	< 100 nM	100 to 1000 nM	–	–	–	–	–	–	–	–
COc1cc(-c2ccc(-c3ccc(OC4CC(C)(C)NC(C)(C)C4)nn3)c(O)c2)cnn1 [Compound 271]	< 100 nM	< 100 nM	< 100 nM	100 to 1000 nM	< 100 nM	< 100 nM	< 100 nM	< 100 nM	–	–	–	–	–	–	–	–
Oc1cc(-c2cc(OC(F)F)ncn2)ccc1-c1ccc(N2CCC(NCC3CC3)C2)nn1 (stereo not shown) [Compound 370]	> 10000 nM	> 10000 nM	> 10000 nM	> 10000 nM	> 10000 nM	> 10000 nM	100 to 1000 nM	> 10000 nM	–	–	–	–	–	–	–	–
Cc1ccc(-c2ccc(-c3ccc(N4CCC(NC5CCC5)C4)nn3)c(O)c2)o1 (stereo not shown) [Compound 325, 2-{6-[3-(cyclobutylamino)pyrrolidin-1-yl]pyridazin-3-yl}-5-(5-methylfuran-2-yl)phenol]	1000 to 10000 nM	1000 to 10000 nM	1000 to 10000 nM	1000 to 10000 nM	1000 to 10000 nM	1000 to 10000 nM	1000 to 10000 nM	1000 to 10000 nM	–	–	–	–	–	–	–	–
Cc1ncc(-c2ccc(-c3ccc(N4CC[C@](C)(NC5CCC5)C4)nn3)c(O)c2)s1 [Compound 357]	< 100 nM	< 100 nM	< 100 nM	100 to 1000 nM	100 to 1000 nM	100 to 1000 nM	< 100 nM	< 100 nM	–	–	–	–	–	–	–	–
Cc1nc2cc(O)c(-c3ccc(N4CC[C@H](NC(C)(C)C)C4)nn3)cc2o1 [Compound 813]	–	–	–	–	–	–	–	–	1000 to 10000 nM	100 to 1000 nM	100 to 1000 nM	1000 to 10000 nM	1000 to 10000 nM	1000 to 10000 nM	100 to 1000 nM	1000 to 10000 nM
Cc1nnc(-c2cc(O)c(-c3ccc(N4CC[C@@H](NC5CCC5)C4)nn3)cc2F)s1 [Compound 359]	1000 to 10000 nM	100 to 1000 nM	100 to 1000 nM	1000 to 10000 nM	1000 to 10000 nM	1000 to 10000 nM	100 to 1000 nM	1000 to 10000 nM	–	–	–	–	–	–	–	–
Cc1ncc(-c2cc(O)c(-c3ccc(N4CCC(NC5CCCCC5)C4)nn3)cc2F)s1 (stereo not shown) [Compound 410]	< 100 nM	< 100 nM	< 100 nM	100 to 1000 nM	1000 to 10000 nM	1000 to 10000 nM	< 100 nM	100 to 1000 nM	–	–	–	–	–	–	–	–
COc1cc(-c2cc(O)c(-c3ccc(N4CCC(C)(NC(C)C)C4)nn3)cc2F)cnn1 (stereo not shown) [Compound 284]	< 100 nM	< 100 nM	< 100 nM	100 to 1000 nM	100 to 1000 nM	100 to 1000 nM	< 100 nM	100 to 1000 nM	–	–	–	–	–	–	–	–
COc1cc(-c2ccc(-c3ccc(N4CCC(N[C@H]5C[C@H](O)C5)C4)nn3)c(O)c2)cnn1 (stereo partly shown) [Compound 447]	< 100 nM	< 100 nM	< 100 nM	100 to 1000 nM	100 to 1000 nM	100 to 1000 nM	< 100 nM	100 to 1000 nM	–	–	–	–	–	–	–	–
COc1cc(-c2ccc(-c3ccc(N4C[C@@H](F)[C@@H](NC(C)(C)C)C4)nn3)c(O)c2)cnn1 [Compound 218, 2-{6-[(3S,4R)-3-(tert-butylamino)-4-fluoropyrrolidin-1-yl]pyridazin-3-yl}-5-(6-methoxypyridazin-4-yl)phenol]	< 100 nM	< 100 nM	< 100 nM	< 100 nM	< 100 nM	< 100 nM	< 100 nM	< 100 nM	–	–	–	–	–	–	–	–
